target: T1, c-MET (HGFR) (Homo sapiens, UniProt P08581); test: HGFR Continuous-Coupled Spectrophotometric Assay; format: biochemical; details: Met-2 substrate peptide, 50 nM HGFR, 37° C.; read-out: Met Ki
T1 construct: purchased Upstate 14-526
Excerpt: The following in vitro assay may be used to determine the level of activity and effect of the different compounds of the present invention on one or more of the PKs. Similar assays can be designed along the same lines for any PK using techniques well known in the art.
The general procedure is as follows: compounds and kinase assay reagents are introduced into test wells. The assay is initiated by addition of the kinase enzyme. Enzyme inhibitors reduce the measured activity of the enzyme.
In the continuous-coupled spectrophotometric assay the time-dependent production of ADP by the kinase is determined by analysis of the rate of consumption of NADH by measurement of the decrease in absorbance at 340 nm. As the PK produces ADP it is re-converted to ATP by reaction with phosphoenol pyruvate and pyruvate kinase. Pyruvate is also produced in this reaction. Pyruvate is subsequently converted to lactate by reaction with lactate dehydrogenase, which simultaneously converts NADH to NAD.
HGFR Continuous-Coupled Spectrophotometric Assay
This assay analyzes the tyrosine kinase activity of HGFR on the Met-2 substrate peptide, a peptide derived from the activation loop of the HGFR.
• 1. […] Dissolve up in 200 mM HEPES, pH 7.5 at 10 mM stock. • 3. 1 M PEP (phospho-enol-pyruvate) in 200 mM HEPES, pH 7.5 • 4. 100 mM NADH (B-Nicotinamide Adenine Dinucleotide, Reduced Form) in 200 mM HEPES, pH 7.5 • 5. 4 M MgCl2 (Magnesium Chloride) in ddH2O • 6. 1 M DTT (Dithiothreitol) in 200 mM HEPES, pH 7.5 • 7. 15 Units/mL LDH (Lactic Dehydrogenase) • 8. 15 Units/mL PK (Pyruvate Kinase) • 9. 5M NaCl dissolved in ddH2O • 10. Tween-20 (Protein Grade) 10% Solution • 11. 1 M HEPES buffer: (N-[2-Hydroxethyl]piperazine-N-[2-ethanesulfonic acid]) Sodium Salt. Dissolve in ddH2O, adjust pH to 7.5, bring volume to 1 L. Filter at 0.1 μm. • 12. […] 100% DMSO (SIGMA) • 14. […] Beckman DU-650 w/micro cell holders • 18. Beckman 4-position micro cell cuvette Procedure:
Prep Dilution Buffer (DB) for Enzyme (For 30 mL prep) • 1. DB final concentration is 2 mM DTT, 25 mM NaCl2, 5 mM MgCl2, 0.01% Tween-20, and 50 mM HEPES buffer, pH 7.5. • 2. Make up 50 mM HEPES by adding 1.5 mL 1 M HEPES into 28.1 mL of ddH2O. Add rest of the reagents. Into 50 mL conical vial, add 60 μL of 1M DTT, 150 μL 5M NaCl2, 150 μL 1M MgCl2, and 30 μL of 10% Tween-20 to give total volume of 30 mL. • 3. […] Aliquot out DB at 1 mL/tube and label tubes as “DB HGFR” • 5. Note: This can be prepared and stored ahead of time. • 6. Freeze un-used aliquots in microcentrifuge tubes at −20° C. freezer. […] For compound dilution plate, add 4 μL of 10 mM stock into column 1 of plate, and bring volume to 100 μL with 100% DMSO. • 2. Set up the Precision 2000 dilution method. A final concentration of 200 μM compound in 50% DMSO, 100 mM HEPES (1:2 serial dilution). Prep Coupled Enzymatic Buffer:
1. Final concentration in assay:
• 2. For a 10 mL reaction buffer add 10 μL of 1M PEP, 33 μL of 100 mM NADH, 50 μL of 4M MgCl2, 20 μL of 1M DTT, 6 μL of 500 mM ATP, and 500 μL of 10 mM Met-2 peptide into 100 mM HEPES buffer pH 7.5 and vortex/mix. • 3. Add coupling enzymes, LDH and PK, into reaction mix. Mix by gentle inversion. Running Samples
1. Spectrophotometer settings:
• 2. Add 85 μL of CE reaction mix into each well of assay plate. • 3. Add 5 μL of diluted compound into a well of the assay plate. • 4. Add 5 μL of 50% DMSO for negative control into last column of assay plate. • 5. Mix with multi-channel pipettor or orbital shaker. • 6. Pre-incubate for 10 minutes at 37° C. • 7. Add 10 μL of 500 nM HGFR to each well of assay plate; the final HGFR concentration is 50 nM in a total final volume of 100 μL. • 8. Measure activity for 10 minutes at λ=340 nm and 37° C.

T1 sequence (P08581 974-1390 limits assumed): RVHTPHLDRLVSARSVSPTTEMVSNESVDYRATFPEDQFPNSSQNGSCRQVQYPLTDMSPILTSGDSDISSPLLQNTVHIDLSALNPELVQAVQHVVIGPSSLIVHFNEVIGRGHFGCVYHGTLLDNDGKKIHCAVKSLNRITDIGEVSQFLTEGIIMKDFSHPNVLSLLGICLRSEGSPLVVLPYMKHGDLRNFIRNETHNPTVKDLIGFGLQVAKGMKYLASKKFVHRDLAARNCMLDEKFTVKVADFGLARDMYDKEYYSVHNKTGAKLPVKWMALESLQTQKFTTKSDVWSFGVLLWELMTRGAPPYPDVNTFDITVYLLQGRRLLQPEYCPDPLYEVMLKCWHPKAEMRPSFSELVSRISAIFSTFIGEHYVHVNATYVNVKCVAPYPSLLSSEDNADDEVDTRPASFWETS

| Molecule | Ki [nM] |
| --- | --- |
| 4-(4-{6-Amino-5-[1- (2,6-dichloro-3-fluoro- phenyl)-ethoxy]-pyridin- 3-yl}-pyrazoI-1-yl)- piperidine-1- carboxylic acid dimethylamide [Example 120] | 16 |

same assay, conditions: Met-2 substrate peptide, 50 nM HGFR, 37° C.; read-out: c-Met Ki

| Molecule | Ki [nM] |
| --- | --- |
| CNC(=O)[C@H]1C[C@@H]1Cn1cc(-c2cnc(N)c(OC(C)c3c(Cl)ccc(F)c3Cl)c2)cn1 (stereo in doubt) [Example 10, 2-[(4-{6-amino-5-[1-(2,6-dichloro-3-fluorophenyl)ethoxy]pyridin-3-yl}-1H-pyrazol-1-yl)methyl]-N-methylcyclopropanecarboxamide] | 71 |
| CC(Oc1cc(-c2cnn(C[C@H]3C[C@@H]3C(=O)N(C)C)c2)cnc1N)c1c(Cl)ccc(F)c1Cl (stereo in doubt) [Example 11, 2-[(4-{6-amino-5-[1-(2,6-dichloro-3-fluorophenyl)ethoxy]pyridin-3-yl}-1H-pyrazol-1-yl)methyl]-N,N-dimethylcyclopropanecarboxamide] | 144 |
| CC(Oc1cc(-c2cnn(C[C@H]3COC(C)(C)O3)c2)cnc1N)c1c(Cl)ccc(F)c1Cl (stereo in doubt) [Example 86, 3-[1-(2,6-Dichloro-3-fluoro-phenyl)-ethoxy]-5-[1-(2,2-dimethyl-[1,3]dioxolan-4-ylmethyl)-1H-pyrazol-4-yl]-pyridin-2-ylamine] | 62 |
| C[C@@H](Oc1nc(Br)cnc1N)c1c(Cl)ccc(F)c1Cl [5-bromo-3-[(R)-1-(2,6-dichloro-3-fluoro-phenyl)-ethoxy]-pyrazin-2-ylamine] | 796 |
| CC(Oc1cc(-c2cnn(CC3CN(C(=O)OC(C)(C)C)C3)c2)cnc1N)c1c(Cl)ccc(F)c1Cl (stereo not shown) [Example 1, tert-butyl 3-[(4-{6-amino-5-[1-(2,6-dichloro-3-fluorophenyl)ethoxy]pyridin-3-yl}-1H-pyrazol-1-yl)methyl]azetidine-1-carboxylate] | 66 |
| CC(Oc1cc(-c2cnn(CC3(O)CCN(C(=O)OC(C)(C)C)CC3)c2)cnc1N)c1c(Cl)ccc(F)c1Cl (stereo not shown) [Example 3, tert-butyl 4-[(4-{6-amino-5-[1-(2,6-dichloro-3-fluorophenyl)ethoxy]pyridin-3-yl}1H-pyrazol-1-yl)methyl]-4-hydroxypiperidine-1-carboxylate] | 104 |
| CC(Oc1cc(-c2cnn(CC3(O)CCNCC3)c2)cnc1N)c1c(Cl)ccc(F)c1Cl (stereo not shown) [Example 4, 4-[(4-{6-amino-5-[1-(2,6-dichloro-3-fluorophenyl)ethoxy]pyridin-3-yl}1H-pyrazol-1-yl)methyl]piperidin-4-ol] | 62 |
| CC(Oc1cc(-c2cnn(C(C)(C)C(=O)O)c2)cnc1N)c1c(Cl)ccc(F)c1Cl (stereo not shown) [Example 12, 2-(4-{6-Amino-5-[1-(2,6-dichloro-3-fluoro-phenyl)-ethoxy]-pyridin-3-yl}-pyrazol-1-yl)-2-methyl-propionic acid] | 180 |
| CC(Oc1cc(-c2cnn(C)c2N)cnc1N)c1c(Cl)ccc(F)c1Cl (stereo not shown) [Example 13, 5-(5-Amino-1-methyl-1H-pyrazol-4-yl)-3-[1-(2,6-dichloro-3-fluoro-phenyl)-ethoxy]-pyridin-2-ylamine] | 130 |
| Cc1[nH]ncc1-c1cnc(N)c(OC(C)c2c(Cl)ccc(F)c2Cl)c1 (stereo not shown) [Example 14, 3-[1-(2,6-Dichloro-3-fluoro-phenyl)-ethoxy]-5-(5-methyl-1H-pyrazol-4-yl)-pyridin-2-ylamine] | 700 |
| CC(Oc1cc(-c2cnn(C(C)(C)C(=O)N3CCNCC3)c2)cnc1N)c1c(Cl)ccc(F)c1Cl (stereo not shown) [Example 17, 2-(4-{6-Amino-5-[1-(2,6-dichloro-3-fluoro-phenyl)-ethoxy]-pyridin-3-yl}-pyrazol-1-yl)-2-methyl-1-piperazin-1-yl-propan-1-one] | 440 |
| CC(Oc1cc(-c2cnn(C(C)(C)C(=O)N3CC[C@@H](O)C3)c2)cnc1N)c1c(Cl)ccc(F)c1Cl (stereo partly drawn) [Example 18, 2-(4-{6-Amino-5-[1-(2,6-dichloro-3-fluoro-phenyl)-ethoxy]-pyridin-3-yl}-pyrazol-1-yl)-1-((R)-3-hydroxy-pyrrolidin-1-yl)-2-methyl-propan-1-one] | 270 |
| CC(Oc1cc(-c2cnn(C(C)(C)C(=O)NCCN3CCOCC3)c2)cnc1N)c1c(Cl)ccc(F)c1Cl (stereo not shown) [Example 19, 2-(4-{6-Amino-5-[1-(2,6-dichloro-3-fluoro-phenyl)-ethoxy]-pyridin-3-yl}-pyrazol-1-yl)-N-(2-morpholin-4-yl-ethyl)-isobutyramide] | 140 |
| CC(Oc1cc(-c2cnn(C(C)(C)C(=O)NCCN3CCCC3)c2)cnc1N)c1c(Cl)ccc(F)c1Cl (stereo not shown) [Example 21, 2-(4-{6-Amino-5-[1-(2,6-dichloro-3-fluoro-phenyl)-ethoxy]-pyridin-3-yl}-pyrazol-1-yl)-N-(2-pyrrolidin-1-yl-ethyl)-isobutyramide] | 60 |

Other lines, results leading:

| Ki [nM] | Molecule |
| --- | --- |
| 60 | CC(Oc1cc(-c2cnn(C(C)(C)C(=O)NCCCN(C)C)c2)cnc1N)c1c(Cl)ccc(F)c1Cl (stereo not shown) [Example 16, 2-(4-{6-Amino-5-[1-(2,6-dichloro-3-fluoro-phenyl)-ethoxy]-pyridin-3-yl}-pyrazol-1-yl)-N-(3-dimethylamino-propyl)-isobutyramide] |
| 42 | CCOC(=O)[C@H]1CC1Cn1cc(-c2cnc(N)c(OC(C)c3c(Cl)ccc(F)c3Cl)c2)cn1 (stereo in doubt) [Example 9, ethyl 2-[(4-{6-amino-5-[1-(2,6-dichloro-3-fluorophenyl)ethoxy]pyridin-3-yl}-1H-pyrazol-1-yl)methyl]cyclopropanecarboxylate] |
| 40 | CC(Oc1cc(-c2cnn([C@H](C)C(=O)NCCCN(C)C)c2)cnc1N)c1c(Cl)ccc(F)c1Cl (stereo in doubt) [Example 74, 2-(4-{6-Amino-5-[1-(2,6-dichloro-3-fluoro-phenyl)-ethoxy]-pyridin-3-yl}-pyrazol-1-yl)-N-(3-dimethylamino-propyl)-propionamide] |
| 38 | CC(Oc1cc(-c2cnn(C3CN(CC4CC4)C3)c2)cnc1N)c1c(Cl)ccc(F)c1Cl (stereo not shown) [Example 6, 5-{1-[1-(cyclopropylmethyl)azetidin-3-yl]-1H-pyrazol-4-yl}-3-[1-(2,6-dichloro-3-fluorophenyl)ethoxy]pyridin-2-amine] |
| 28 | CC(Oc1cc(-c2cnn(C[C@H](O)CO)c2)cnc1N)c1c(Cl)ccc(F)c1Cl (stereo in doubt) [Example 87, 3-(4-{6-Amino-5-[1-(2,6-dichloro-3-fluoro-phenyl)-ethoxy]-pyridin-3-yl}-pyrazol-1-yl)-propane-1,2-diol] |
| 25 | CC(Oc1cc(-c2cnn(C3CN(CC#N)C3)c2)cnc1N)c1c(Cl)ccc(F)c1Cl (stereo not shown) [Example 8, [3-(4-{6-amino-5-[1-(2,6-dichloro-3-fluorophenyl)ethoxy]pyridin-3-yl}-1H-pyrazol-1-yl)azetidin-1-yl]acetonitrile] |
| 22 | CC(Oc1cc(-c2cnn(C3CN(C(=O)CN(C)C)C3)c2)cnc1N)c1c(Cl)ccc(F)c1Cl (stereo not shown) [Example 7, 3-[1-(2,6-dichloro-3-fluorophenyl)ethoxy]-5-(1-{1-[(dimethylamino)acetyl]azetidin-3-yl}-1H-pyrazol-4-yl)pyridin-2-amine] |
